Source: patent US20220296590A1, “STEREOISOMERS OF THE COMPOUND 3-(BENZO[D][1,3]DIOXOL-5-YL)-7-(1-HYDROXYPROPAN-2-YL)-1-(1H-INDOL-3-YL)-6,7-DIHYDRO-3H-OXAZOL[3,4-A]PYRAZINE-5,8-DIONE AND USE THEREOF AS AN ANTITUMOR AGENT AND PHOSPHODIESTERASE ENZYME INHIBITOR” (BIOLAB SANUS FARMACEUTICA LTDA, priority 2019, published 2022)

How the values were obtained:
PDE5A1 enzyme = molecular target: T1, PDE5A1 enzyme (Homo sapiens, UniProt O76074); assay: In vitro inhibition of human phosphodiesterase enzyme 5 (BPS Bioscience PDE5A1 assay kit, fluorescence polarization); format: biochemical
T1 construct: purchased BPS Bioscience 60350
Method: The evaluation of the compound is studied using BPS Bioscience enzyme assay kit (catalogue 60350). The PDE5A1 Assay kit is designed for identification of PDE5A1 inhibitors using fluorescence polarization. The assay is based on the binding of a fluorescent nucleotide monophosphate generated by PDE5A1 enzyme to the binding agent.
In this methodology only two simple steps on a microtiter plate are required for PDE5A1 reactions. First, the fluorescently labeled cGMP is incubated with PDE5A1 for 1 hour. Second, the binding agent is added to the reaction mixture to produce a change in fluorescent polarization that can then be measured using a fluorescence reader equipped for the measurement of fluorescence polarization.
For the assay the storage reagent FAM-Cyclic-3′, 5′-GMP (20 μM) is diluted with PDE assay buffer to achieve the solution with a […] concentration; the PDE5A1 enzyme is thawed and diluted with the PDE buffer obtaining a PDE5A1 solution at 10 pg/mL.
The assay compounds are diluted with DMSO 100% (v/v) at a concentration of 1000 μM and subsequently diluted in a Sodium chloride 0.9% solution to obtain a curve of concentrations of interest for the assay. The compounds are diluted in concentrations of: 10 nM, 30 nM, 50 nM, 100 nM, 300 nM, 500 nM, 1 μM, 3 μM, 5 μM (DMSO 10% v/v).
The study is comprised of groups: (i) substrate control; (ii) positive control (KIT); (iii) samples in several concentrations; (iv) tadalafil (comparative control). Each parameter (group) is triple labeled.
For the 4 groups there is added, to each microplate well, […] of the FAM-Cyclic-3′ reagent, 5′-GMP (200 μM).
To the substrate control group there is added, to each well, […] of vehicle (DMSO 10% v/v) and […] PDE Buffer.
To the positive control group there is added, to each well, […] of vehicle (DMSO 10% v/v).
To the tadalafil group: there is added […] of the solution in the concentrations of interest.
To the test group there is added […] of the sample solution (test compound)
OBSERVATION: the parameters tested are in triplicate.
To begin the reaction, add […] of the PDE5A1 enzyme (diluted as described above) to the microplate wells designated as Positive Control and Samples (test and tadalafil), and incubate the microplate, for 1 hour, at a temperature of 25° C.
After the incubation period, the reaction is interrupted by the addition, in all the wells, of […] of the binding agent solution and the microplate is incubated for 30 minutes, under light stirring, at room temperature. The reading of the microplate is carried out in Polarized Fluorescence (475-495 nm—excitation and 518-538 nm—emission detection) 500 nanoseconds integration time.

[1] = system: MNK45-human gastric cancer; assay: Antiproliferative effect in tumor cell culture (CYQuant intracellular DNA, 72 hours), MNK45; format: cell-based
Method: (§1) For the execution of the assay, the compounds are diluted in DMSO 100% (v/v) at a concentration of 1000 μM and subsequently diluted in a Sodium Chloride solution 0.9% to obtain the storage solutions of interest for use in the assays. The final concentration of interest will be directly diluted in the cell culture medium. For the assay there are used the following tumor cell lineages: PC3-human prostate cancer cells; LNCAP-human prostate cancer cells; DU145-human prostate cancer; MNK45-human gastric cancer and RT4-human bladder cancer cells. The tumor cell lineages are maintained in culture according to standard procedures established by the Cell Bank of Rio de Janeiro (lineage place of origin). For the assay, the tumor cells are seeded in the concentration of 10.000 cells per well (final volume of the reaction of […]), the plate is incubated for 8 hours, for the cells to adhere to the wall of the wells. After this period, the plate is divided in groups: • (a) test group: […] of the samples were added (test compound) in the concentrations of interest; • (b) positive control group: […] of culture medium were added (100% of cell proliferation); • (c) negative control group: 200 mL of culture medium and […] of the vehicle used were added to dilute the compounds (without cells—zero proliferation); • (d) control group: […] were added of the vehicle used to dilute the compounds. This group is important to evaluate whether the vehicle used interferes in the cell proliferation. OBSERVATION: the treatment with the concentrations of samples (test compounds) and of the controls are carried out in triplicate. Incubate the plate for 72 hours in a CO2 kiln at 37° C. After the incubation period, add […]/well of the solution with DNA marker from the CYQuant Kit and incubate the plate, for 60 minutes, in a CO2 incubator at 37° C. The fluorescence intensity is determined using a fluorescence microplate reader with 485 nm excitation and 530 nm emission detection. The results obtained were normalized relative to the positive control group (100% proliferation). For the compounds there are prepared the storage solutions in the concentrations of: 100 nM, 1 μM, 3 μM, 5 μM, 10 μM and 30 μM (DMSO 10% v/v). While the final concentrations in the test are of: 10 nM, 100 nM, 300 nM, 500 nM, 1000 nM and 3000 nM (in DMSO 1% v/v).

[2] = system: DU145-human prostate cancer; assay: Antiproliferative effect in tumor cell culture (CYQuant intracellular DNA, 72 hours), DU145; format: cell-based; conditions: for % Cell Proliferation Inhibition (intracellular DNA) DU145 (average ± E.P.M.): 72 hours
Method: as §1

[3] = system: LNCAP-human prostate cancer cells; assay: Antiproliferative effect in tumor cell culture (CYQuant intracellular DNA, 72 hours), LNCAP; format: cell-based; conditions: for % Cell Proliferation Inhibition (intracellular DNA) LNCAP (average ± E.P.M.): 72 hours
Method: as §1

[4] = system: PC3-human prostate cancer cells; assay: Antiproliferative effect in tumor cell culture (CYQuant intracellular DNA, 72 hours), PC3; format: cell-based; conditions: for % Cell Proliferation Inhibition (intracellular DNA) PC-3 (average ± E.P.M.): 72 hours
Method: as §1

[5] = system: RT4-human bladder cancer cells; assay: Antiproliferative effect in tumor cell culture (CYQuant intracellular DNA, 72 hours), RT4; format: cell-based; conditions: for % Cell Proliferation Inhibition (intracellular DNA) RT4 (average ± E.P.M.): 72 hours
Method: as §1

In the case of `CN1CC(=O)N2[C@H](c3ccc4c(c3)OCO4)c3[nH]c4ccccc4c3C[C@@H]2C1=O` [Tadalafyl, tadalafil, reference compound], the inhibition at 5 µM (PDE5A1 enzyme; read-out: % of Inhibition (PDE5A1)) is reported as 96 ± 2%.

With `CC(CO)N1CC(=O)N2C(=C(c3c[nH]c4ccccc34)OC2c2ccc3c(c2)OCO3)C1=O` (mixture of isomers) [BL-241, (R)-3-(benzo[d][1,3]dioxol-5-yl)-7-((S)-1-hydroxypropan-2-yl)-1-(1H-indole-3-yl)-6,7-dihydro-3H-oxazole[3,4-a]pyrazine-5,8-dione with (S)-3-(benzo[d][1,3]dioxol-5-yl)-7-((S)-1-hydroxypropan-2-yl)-1-(1H-indole-3-yl)-6,7-dihydro-3H -oxazole[3,4-a]pyrazine-5,8-dione] the “% Cell Proliferation Inhibition (intracellular DNA) MNK45 (average ± E.P.M.)” value ([1]; 100 nM, 0.1 µM) was 25 ± 1%, the “% Cell Proliferation Inhibition (intracellular DNA) MNK45 (average ± E.P.M.)” value ([1]; 300 nM, 0.3 µM) was 10 ± 2% and the “% Cell Proliferation Inhibition (intracellular DNA) MNK45 (average ± E.P.M.)” value ([1]; 500 nM, 0.5 µM) was 2 ± 1%. For the same compound, the “% Cell Proliferation Inhibition (intracellular DNA) MNK45 (average ± E.P.M.)” value ([1]; 1000 nM, 1 µM) was 4 ± 1%, the “% Cell Proliferation Inhibition (intracellular DNA) MNK45 (average ± E.P.M.)” value ([1]; 3000 nM, 3 µM) was 20 ± 3% and the “% Cell Proliferation Inhibition (intracellular DNA) DU145 (average ± E.P.M.)” value ([2]; 100 nM, 0.1 µM) was 33 ± 8%. The “% Cell Proliferation Inhibition (intracellular DNA) DU145 (average ± E.P.M.)” value ([2]; 300 nM, 0.3 µM) was 17 ± 3%, the “% Cell Proliferation Inhibition (intracellular DNA) DU145 (average ± E.P.M.)” value ([2]; 500 nM, 0.5 µM) was 18 ± 2% and the “% Cell Proliferation Inhibition (intracellular DNA) DU145 (average ± E.P.M.)” value ([2]; 1000 nM, 1 µM) was 22 ± 2%. For the same compound, the “% Cell Proliferation Inhibition (intracellular DNA) DU145 (average ± E.P.M.)” value ([2]; 3000 nM, 3 µM) was 43 ± 5%, the “antiproliferative effect, result in words” value ([2]; DU145 prostate cancer tumor lineage) was “antiproliferative effect” and the “% of Inhibition (PDE5A1)” value (PDE5A1 enzyme; 500 nM, 0.5 µM) was 57%. The “% of Inhibition (PDE5A1)” value (PDE5A1 enzyme; 1000 nM, 1 µM) was 71%, the “% of Inhibition (PDE5A1)” value (PDE5A1 enzyme; 3000 nM, 3 µM) was 88% and the “PDE5 inhibition, result in words” value (PDE5A1 enzyme; over the concentrations tested) was “capable of inhibiting the PDE5 in a dose-dependent manner”. For the same compound, the “% Cell Proliferation Inhibition (intracellular DNA) LNCAP (average ± E.P.M.)” value ([3]; 10 nM, 0.01 µM) was 25 ± 2%, the “% Cell Proliferation Inhibition (intracellular DNA) LNCAP (average ± E.P.M.)” value ([3]; 100 nM, 0.1 µM) was 37 ± 3% and the “% Cell Proliferation Inhibition (intracellular DNA) LNCAP (average ± E.P.M.)” value ([3]; 300 nM, 0.3 µM) was 38 ± 4%. For the same compound, the “% Cell Proliferation Inhibition (intracellular DNA) LNCAP (average ± E.P.M.)” value ([3]; 500 nM, 0.5 µM) was 44 ± 2%, the “% Cell Proliferation Inhibition (intracellular DNA) LNCAP (average ± E.P.M.)” value ([3]; 1000 nM, 1 µM) was 34 ± 6% and the “antiproliferative effect, result in words” value ([3]; LNCAP prostate cancer tumor lineage) was “antiproliferative effect”. For the same compound, the “% Cell Proliferation Inhibition (intracellular DNA) PC-3 (average ± E.P.M.)” value ([4]; 10 nM, 0.01 µM) was 27 ± 11%, the “% Cell Proliferation Inhibition (intracellular DNA) PC-3 (average ± E.P.M.)” value ([4]; 100 nM, 0.1 µM) was 36 ± 7% and the “% Cell Proliferation Inhibition (intracellular DNA) PC-3 (average ± E.P.M.)” value ([4]; 300 nM, 0.3 µM) was 42 ± 6%. The “% Cell Proliferation Inhibition (intracellular DNA) PC-3 (average ± E.P.M.)” value ([4]; 500 nM, 0.5 µM) was 46 ± 1%, the “% Cell Proliferation Inhibition (intracellular DNA) PC-3 (average ± E.P.M.)” value ([4]; 1000 nM, 1 µM) was 33 ± 3% and the “antiproliferative effect, result in words” value ([4]; PC3 prostate cancer tumor lineage) was “antiproliferative effect”. The “% Cell Proliferation Inhibition (intracellular DNA) RT4 (average ± E.P.M.)” value ([5]; 100 nM, 0.1 µM) was 28 ± 6%, the “% Cell Proliferation Inhibition (intracellular DNA) RT4 (average ± E.P.M.)” value ([5]; 300 nM, 0.3 µM) was 5 ± 2% and the “% Cell Proliferation Inhibition (intracellular DNA) RT4 (average ± E.P.M.)” value ([5]; 500 nM, 0.5 µM) was 4 ± 2%. For the same compound, the “% Cell Proliferation Inhibition (intracellular DNA) RT4 (average ± E.P.M.)” value ([5]; 1000 nM, 1 µM) was 11 ± 8%, the “% Cell Proliferation Inhibition (intracellular DNA) RT4 (average ± E.P.M.)” value ([5]; 3000 nM, 3 µM) was 57 ± 4% and the “antiproliferative effect, result in words” value ([5]; RT4 bladder cancer tumor lineage) was “antiproliferative effect”.
